In assay [1] the test system is LN-229. Nature of the assay: Antiproliferative activity against human LN-229 cells assessed as inhibition of cell growth incubated for 68 hrs by CCK-8 assay. The assay is classed as functional, cell-based. Conditions: LN-229, 68 h.
Assay [2] concerns U-87 MG. Nature of the assay: Antiproliferative activity against human U-87 MG cells assessed as inhibition of cell growth incubated for 68 hrs by CCK-8 assay. The format is functional, cell-based, U-87MG ATCC. (Tetrazolium assays rely on reduction of a dye to a coloured formazan, in cell work by metabolically active cells.)
For assay [3], the system named is LN-229. Nature of the assay: Induction of apoptosis in human LN-229 cells at 20 uM incubated for 24 hrs in presence of R7050 by Annexin V-APC/7-AAD staining based flow cytometric analysis relative to control. The assay is classed as functional. A general note: In flow cytometry, cells or beads pass a laser one at a time.
For assay [4], the system named is LN-229. Nature of the assay: Induction of apoptosis in human LN-229 cells at 20 uM incubated for 24 hrs by Annexin V-APC/7-AAD staining based flow cytometric analysis (reference value: 4.47 +/- 1.09 %). The format is functional.
Assay [5] relates to U-87 MG. Nature of the assay: Induction of apoptosis in human U-87 MG cells assessed as necrotic cells at 20 uM incubated for 12 hrs by Annexin V-APC/7-AAD staining based flow cytometric analysis (reference value: 1 %). The format is functional, U-87MG ATCC.
The test system of assay [6] is LN-229. Nature of the assay: Induction of apoptosis in human LN-229 cells assessed as viable cells at 20 uM incubated for 24 hrs by Annexin V-APC/7-AAD staining based flow cytometric analysis (reference value: 92.3 %). The format is functional. Conditions: read-out: Activity.
The subject of assay [7] is LN-229. Nature of the assay: Induction of apoptosis in human LN-229 cells assessed as viable cells at 20 uM incubated for 48 hrs by Annexin V-APC/7-AAD staining based flow cytometric analysis (reference value: 91.7 %). The assay is classed as functional. Conditions: read-out: Activity.
Assay [8] has as its system U-87 MG. Nature of the assay: Induction of apoptosis in human U-87 MG cells at 20 uM incubated for 24 hrs in presence of R7050 by Annexin V-APC/7-AAD staining based flow cytometric analysis relative to control. The format is functional, U-87MG ATCC.
For assay [9], the system named is LN-229. Nature of the assay: Induction of apoptosis in human LN-229 cells assessed as necrotic cells at 20 uM incubated for 24 hrs by Annexin V-APC/7-AAD staining based flow cytometric analysis (reference value: 0.7 %). The assay is classed as functional.
For assay [10], the system named is LN-229. Nature of the assay: Induction of apoptosis in human LN-229 cells at 10 uM incubated for 48 hrs by Annexin V-APC/7-AAD staining based flow cytometric analysis (reference value: 7.32 +/- 0.71 %). The assay is classed as functional.
Assay [11] concerns U-87 MG. Nature of the assay: Induction of apoptosis in human U-87 MG cells assessed as viable cells at 20 uM incubated for 24 hrs by Annexin V-APC/7-AAD staining based flow cytometric analysis (reference value: 94.6 %). The settings on record: read-out: Activity. The format is functional, U-87MG ATCC.
Assay [12] has as its system LN-229. Nature of the assay: Induction of apoptosis in human LN-229 cells assessed as late apoptotic cells at 20 uM incubated for 48 hrs by Annexin V-APC/7-AAD staining based flow cytometric analysis (reference value: 5.1 %). The assay is classed as functional.
Assay [13] deals with LN-229. Nature of the assay: Induction of apoptosis in human LN-229 cells assessed as necrotic cells at 20 uM incubated for 48 hrs by Annexin V-APC/7-AAD staining based flow cytometric analysis (reference value: 0.7 %). The assay is classed as functional.
The subject of assay [14] is LN-229. Nature of the assay: Induction of apoptosis in human LN-229 cells assessed as necrotic cells at 5 uM incubated for 24 hrs by Annexin V-APC/7-AAD staining based flow cytometric analysis (reference value: 0.56 %). The format is functional.
The subject of assay [15] is LN-229. Nature of the assay: Induction of apoptosis in human LN-229 cells assessed as necrotic cells at 20 uM incubated for 24 hrs in presence of R7050 by Annexin V-APC/7-AAD staining based flow cytometric analysis (reference value: 1.95 %). The format is functional.
The subject of assay [16] is U-87 MG. Nature of the assay: Induction of apoptosis in human U-87 MG cells assessed as early apoptotic cells at 5 uM incubated for 24 hrs by Annexin V-APC/7-AAD staining based flow cytometric analysis (reference value: 1.59 %). The format is functional, U-87MG ATCC.
Assay [17] concerns U-87 MG. Nature of the assay: Induction of apoptosis in human U-87 MG cells assessed as upregulation of cleaved caspase-3 expression incubated for 24 hrs by Western blot analysis. The assay is classed as functional, cell-based. The settings on record: U-87MG ATCC. (In general: In western blotting, separated proteins are transferred to a membrane and probed.)
Assay [18] has as its system U-87 MG. Nature of the assay: Induction of apoptosis in human U-87 MG cells assessed as early apoptotic cells at 20 uM incubated for 12 hrs by Annexin V-APC/7-AAD staining based flow cytometric analysis (reference value: 0.94 %). The assay is classed as functional, U-87MG ATCC.

Each structure is given as a SMILES string. pIC50: −log10 of the molar value.

Turning to `CCCCCCCNC(=O)[C@H](Cc1c[nH]c2ccccc12)NC(=O)C(C)(c1c[nH]c2ccccc12)c1c[nH]c2ccccc12`, the pIC50 is 4.97 in the assay on LN-229 [1] and 5.09 in the assay on U-87 MG [2]. Besides, the Activity in the assay on LN-229 [3] is reported as 22.79%; with LN-229 [4], 21.2%; in the assay with U-87 MG [5], 1.01%; with U-87 MG [8], 9.37%; in the assay with LN-229 [9] it was 0.87%; in the assay with LN-229 [10], 61.42%. Moreover, the Activity was 41.9% with LN-229 [12]; 1.9% in the assay on LN-229 [13]; 0.46% in the assay with LN-229 [14]; 1.25% in the assay on LN-229 [15]; 2.06% in the assay on U-87 MG [16]; “Dose-Dependent Effect” in the assay with U-87 MG [17]. For the same molecule, in the assay with U-87 MG [18], the Activity turned out to be 1.53%. The viability at 20 µM came to 66.2% with LN-229 [6], 37.7% in the assay with LN-229 [7] and 92% in the assay on U-87 MG [11].

The term pIC50 denotes −log10 of the IC50, conventionally taken in molar units.

For the origin of these results see ChEMBL document CHEMBL5614421, “Structure-activity relationship study of Pseudellone C as anti-glioma agents by targeting TNF/TNFR signaling pathway” (Eur J Med Chem, 2024).
